The results in this text go back to PMC10747430, “^99mTc-Labeled Cyclic Peptide Targeting PD-L1 as a Novel Nuclear Imaging Probe” (Pharmaceutics, 2023).

Data set [1] has as its target T1, human recombinant PD-L1 protein (Homo sapiens, UniProt Q9NZQ7).
T1 construct: purchased FineTest P6857
The experiment in a line: Radio-SDS-PAGE molecular recognition by PD-L1 protein. The data set is classed as binding. To be noted: radiopeptide (1 mg/mL) incubated with PD-L1 (200 µg/mL) 30 min at 37 °C; 15% SDS-PAGE, radio-TLC scan. The method, then: SDS-PAGE gel electrophoresis was performed. Radioactivity distribution was determined using a radio-TLC scanner (Mini-Gita, 60–150 keV, BGO-Crystal, window 25 × 2 mm, thickness 5 mm, resolution optimized for Tc-99m; RayTest, Munich, Germany) to detect [^99mTc]Tc-iPD-L1 and [^99mTc]Tc-WL12 binding to PD-L1 protein.
Briefly, ^99mTc-labeled WL12 and iPD-L1 solutions (100 µL) (1 mg/mL peptide) were incubated with human recombinant PD-L1 protein (100 µL) (200 µg/mL; FineTest; Cat: P6857) (radiopeptide-PD-L1 interaction) or human integrin αVβ3 protein (100 µL) (negative control; 200 µg/mL) (Chemicom, Merck; Burlington, MA, USA) (radiopeptide-integrin interaction) for 30 min at 37 °C, after which the samples were diluted with Laemmli sample buffer (containing 10% SDS, Tris-Cl 125 mM, pH = 6.8, 12.5% glycerol and 0.005% bromophenol blue after dye) to give final protein concentrations of 25 µg/mL. […] Finally, the radioactivity distribution on the gels was scanned using a radio-TLC detector to determine the percentage of [^99mTc]Tc-iPD-L1 or [^99mTc]Tc-WL12 radioactivity associated with proteins.
In vitro-specific recognition of [^99mTc]Tc-iPD-L1 and [^99mTc]Tc-WL12 by the PD-L1 protein was performed using a combination of radio-TLC and SDS-PAGE (radio-SDS-PAGE). […] Therefore, the radioactivity associated with free peptides is in the front of the gel plate (around 60–70 mm). […]

Data set [2] in a line: Serum protein binding. The format is in vitro ADME. Conditions: human serum (diluted 5x), 37 °C, size-exclusion radio-HPLC, n = 3. The method, then: (§1) The stability of [^99mTc]Tc-iPD-L1 and [^99mTc]Tc-WL12 was evaluated by diluting the samples in human serum (5x). The radiopharmaceuticals (n = 3) were heated at 37 °C and analyzed at 0.5, 3, and 24 h for radiochemical purity by size-exclusion radio-HPLC (ProteinPak 300SW, Waters Corporation, Milford, CT, USA).
(§2) The radioactivity from [^99mTc]Tc-iPD-L1 bound to serum proteins was 1.3 ± 0.8% at 30 min, 3.2 ± 1.3% at 3 h, and 7.6 ± 1.9% at 24 h. High radiochemical stability (>90% at 24 h) was also observed. In the case of [^99mTc]Tc-WL12, protein binding was 1.0 ± 0.4% at 30 min, 3.3 ± 0.9% at 3 h, and 6.0 ± 1.3% at 24 h, with a radiochemical purity of >90% at 24 h. Therefore, there was no significant difference […] in protein binding and serum stability between the radiotracers.
Background: SEC sorts molecules by how far they enter the pores of the column.

Data set [3] concerns HCC827 lung cancer tumors. The experiment in a line: Biodistribution in mice bearing HCC827 tumors. To be noted: mice bearing HCC827 tumors. The data set is classed as in vivo, mouse. The method, then: All animal procedures were performed following the Institutional Animal Care and Use Committee requirements under an approved protocol (No. 09-2018-2022) and the Ethical Regulations for the Handling of Laboratory Animals (NOM-062-ZOO-1999). Male Nu/Nu (CINVESTAV, I.PN., Mexico City, Mexico) mice, 6–8 weeks of age, were maintained in an aseptic barrier environment. Mice were inoculated by subcutaneous injection of 1 × 10^6 HCC827 cells/0.1 mL PBS into the upper back. Injection sites were monitored periodically for tumor progression. On day ten after tumor cell inoculation, animals were injected with 18.5 MBq (50 µL) of [^99mTc]Tc-iPD-L1 or 18.5 MBq (50 µL) of [^99mTc]Tc-WL12 by tail vein injection. The animals were sacrificed at 1, 3, and 24 h (n = 3). Kidneys, lungs, heart, liver, spleen, pancreas, small intestine, stomach, muscle, and blood and tumor samples were dissected. Radioactivity was determined in a sodium iodide detector. The results were stated as % injected dose/g.
After 24 h, the activity in tumors was 3.21 ± 0.45 %ID/g ([^99mTc]Tc-WL12) and 5.65 ± 0.98 %ID/g ([^99mTc]Tc-iPD-L1). […] This behavior is related to the higher lipophilicity of [^99mTc]Tc-iPD-L1 compared to [^99mTc]Tc-WL12.

Data set [4] in a line: Stability in human serum. The format is in vitro ADME. To be noted: human serum (diluted 5x), 37 °C, n = 3. The method, then: as §1, §2
In data set [5] the test system is lesions and adenopathies with high metabolic activity. The experiment in a line: [18F]FDG PET/CT imaging in a patient. Set-up: key: Lesions and adenopathies positive for high metabolic activity were detected with [^18F]FDG (✓). The data set is classed as in vivo, human. The source says: A person (weight 60 kg; height 168 cm) diagnosed with advanced plantar malignant melanoma was enrolled in this study (Ethics Committee: Protocol No. 2023-MN02). The trial was approved based on the microdose concept and proof-of-concept studies. In addition, the ethical standards of the INCan Hospital based on the Declaration of Helsinki regarding human experimentation and the GMP certificate granted to ININ by the Mexican Ministry of Health were taken into account. The patient signed an informed consent form after receiving detailed information about the purpose of the study, which could help decide on treatment and monitor disease progression.
Table 2 provides a detailed analysis of the molecular imaging findings obtained in the [^99mTc]Tc-iPD-L1 SPECT/CT and [^18F]FDG/PET studies.

Structures are written as SMILES.

T1 sequence (Q9NZQ7 19-290): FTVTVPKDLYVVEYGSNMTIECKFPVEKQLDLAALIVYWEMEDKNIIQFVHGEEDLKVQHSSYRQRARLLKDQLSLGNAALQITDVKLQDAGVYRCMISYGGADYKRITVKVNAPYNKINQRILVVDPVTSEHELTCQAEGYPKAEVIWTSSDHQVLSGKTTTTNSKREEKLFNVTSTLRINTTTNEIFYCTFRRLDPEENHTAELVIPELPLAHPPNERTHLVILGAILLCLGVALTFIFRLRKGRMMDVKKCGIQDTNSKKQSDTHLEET

With `CC(C)C[C@@H]1NC(=O)[C@H](CC(C)C)NC(=O)[C@H](Cc2c[nH]c3ccccc23)NC(=O)[C@H](CO)NC(=O)[C@H](Cc2c[nH]c3ccccc23)NC(=O)[C@@H]2CCCN2C(=O)[C@H](CC(C)C)NC(=O)[C@H](Cc2c[nH]cn2)NC(=O)[C@@H]2CCCN2C(=O)[C@H](CC(N)=O)NC(=O)[C@H](C)NC(=O)[C@H](Cc2ccc(O)cc2)NC(=O)[C@H](CS)NC(=O)[C@H](CCCCNC(=O)c2ccc(NN)nc2)NC1=O` [[^99mTc]Tc-iPD-L1, metal not drawn], the “radioactivity detected at the distance associated with the PD-L1 protein” value in data set [1] was 30%. Also, the “radioactivity bound to serum proteins at 30 min” value in data set [2] (30 min) is listed as 1.3 ± 0.8%. For the same molecule, the “radioactivity bound to serum proteins at 3 h” value in data set [2] (3 h) was determined as 3.2 ± 1.3%. Besides, in data set [2] (24 h), the “radioactivity bound to serum proteins at 24 h” value stood at 7.6 ± 1.9%. In addition, the “activity in blood, liver, and kidney compared to [99mTc]Tc-WL12” value in data set [3] is “higher activity in blood, liver, and kidney”. The “stability in human serum” value in data set [4] (30 min, 3 h and 24 h, size-exclusion radio-HPLC) is reported as “remained stable”. The remaining at 24 h in data set [4] (24 h, size-exclusion radio-HPLC (ProteinPak 300SW), read-out: radiochemical stability / radiochemical purity in human serum at 24 h) was over 90%.
`OC[C@H]1OC(O)[C@H]([18F])[C@@H](O)[C@@H]1O` (some centres unmarked) [[^18F]FDG]: the “[18F]FDG Uptake” value in data set [5] (patient with plantar malignant melanoma, PET/CT, Mediastinal adenopathies level 4R, 8 and 10L up to 12 mm) was “✓”; in data set [5] (same patient, Adenopathies in the entire intramuscular tract of the left lower extremity up to 14 mm) it was “✓”; in data set [5] (same patient, Adenopathies of the common, internal, external, and obturator iliac chains up to 26 mm), “✓”; in data set [5] (same patient, Left femoral adenopathies of 12 mm), “✓”; in data set [5] (same patient, Left inguinal adenopathies forming clusters of 29 mm), “✓”; in data set [5] (same patient, Left popliteal hollow adenopathies up to 20 mm), “✓”. Moreover, the “[18F]FDG Uptake” value is reported as “✓” in data set [5] (same patient, Left retrocrural adenopathy of 9 mm); “✓” in data set [5] (same patient, Liver, poorly defined hypodense images, the largest in segment 7); “✓” in data set [5] (same patient, Retroperitoneal paraaortic and intercavoaortic adenopathies of 14 mm); “✓” in data set [5] (same patient, exophytic lesion in the heel region of the left foot, 67 × 35 mm).
